Measured values reported in article PMC10385850, “Modified Hederagenin Derivatives Demonstrate Ex Vivo Anthelmintic Activity against Fasciola hepatica” (Pharmaceutics, 2023).
Entries after “also recorded” stand apart in the source; their conditions may differ. Where two headings read alike, the source gives them in different places.

Key:
[1] = system: F. hepatica newly excysted juveniles (NEJs), Italian strain; assay: Ex vivo screen against newly excysted juveniles (NEJs), phenotype and motility scoring; type: cell-based, Fasciola hepatica; details: 10 µM
Summary of the method: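 Newly excysted juveniles of the Italian strain of F. hepatica were obtained by excysting metacercariae and exposed ex vivo to test compounds at 10 μM final concentration in 0.1% DMSO. Controls were 0.1% DMSO (negative) and 10 μM TCBZ in 0.1% DMSO (positive). Motility was scored from 1 (good/normal) to 5 (no movement), and ultrastructural phenotype changes were scored with an established matrix.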

[2] = system: Madin–Darby bovine kidney (MDBK) cells; assay: MTT cell viability assay on MDBK cells; type: cell-based
Method: MTT cell viability assays were performed on Madin–Darby bovine kidney (MDBK cells) for the five selected hederagenin derivatives (MC014, MC035, MC042, MC055 and MC062) using final concentrations of 100 μM, 75 μM, 50 μM, 25 μM, 10 μM, 5 μM and 1 μM (in 1% DMSO). Negative (1% v/v Triton X-100, Sigma-Aldrich, UK) and positive (1% v/v DMSO or media only) controls were included. The protocol was followed as previously described. Absolute EC50 values were calculated from the corrected absorbance of replicates by non-linear regression, after log transformation of concentrations and data normalization (where DMSO values represents 0% inhibition and TX-100 values represent 100% inhibition) using GrapPad Prism 8.

[3] = system: immature F. hepatica flukes (Italian strain); assay: Ex vivo motility assay on immature liver flukes (Italian strain), single concentration and dose response; type: cell-based, Fasciola hepatica; details: 40 µM
Method: The six selected compounds (at 40 µM in 0.4% DMSO) were evaluated on immature flukes (n = 4/condition) at 24, 48 and 72 h (Table S4). The protocol for culturing and scoring (motility) of these life stages have been previously described. Due to restricted numbers of immature worms, a dose response assay was conducted only for MC042. Here, immature worms (n = 2/concentration tested) were screened against descending concentrations of MC042 (40 µM, 13.3 µM and 4.4 µM); motility scores were recorded at 24, 48 and 72 h (Table S5). The scoring pattern used is identical to that described for NEJs.

[4] = system: adult F. hepatica flukes (Italian strain); assay: Ex vivo dose response motility assay on adult liver flukes (Italian strain); type: cell-based, Fasciola hepatica; details: for EC50: adult flukes, motility
Method: The collection, ex vivo culturing and screening of adult liver fluke (Italian strain; n = 3/condition) was previously described. Dose response assays (40 µM, 13.3 µM and 4.4 µM) were conducted for MC014, MC042, MC035, MC055 and MC062 with motility scores recorded at 24, 48 and 72 h (Table S6).

[5] = system: wild strain adult F. hepatica; assay: Ex vivo motility assay on adult liver flukes (wild strain); type: cell-based, Fasciola hepatica; details: 40 µM
Method: Due to the high number of active molecules and a shortage of Italian strain adult liver flukes, the eleven hit compounds were screened for 72 h at 40 µM (in 0.4% DMSO) on wild strain adult F. hepatica (n = 4/condition) of unknown provenance (Table S3). The protocol for culturing and scoring (motility) the activity of these compounds was previously described (1—good/normal; 2—moderate; 3—resting (less than 10 s pulses of body and head), 4—apathetic (less than 2 s pulses of body and head), 5—paralysis and 6–no movement or dead worms). Six compounds were deemed active in these assays and were selected for further screening.

EC50 ([4]; 24 h exposure, read-out: EC50 with 95% CI on Adult Flukes (motility), 24 hour): 13.5 µM
EC50 ([4]; 72 h, read-out: EC50 with 95% CI on Adult Flukes (motility), 72 hour): 9.3 µM
SMILES: CC1(C)CC[C@]2(C(=O)O)CC[C@]3(C)C(=CC[C@@H]4[C@@]5(C)CC[C@@H]6OC(C)(C)OC[C@@]6(C)[C@@H]5CC[C@]43C)[C@@H]2C1 [MC014]
Average motility of 25 NEJs with 95% CI, 24 hours ([1]; 24 h, motility score 1 good/normal to 5 no movement): 5.00 (5.0;5.0)
Average phenotype of 25 NEJs with 95% CI, 24 hours ([1]; 24 h, ultrastructure score 1 normal to 6 dead or dissolved): 4.12 (3.5;4.6)
Average motility of 25 NEJs with 95% CI, 48 hours ([1]; 48 h, motility score 1 good/normal to 5 no movement): 5.00 (5.0;5.0)
Average phenotype of 25 NEJs with 95% CI, 48 hours ([1]; 48 h, ultrastructure score 1 normal to 6 dead or dissolved): 6.00 (6.0;6.0)
Average motility of 25 NEJs with 95% CI, 72 hours ([1]; 72 h, motility score 1 good/normal to 5 no movement): 5.00 (5.0;5.0)
Average phenotype of 25 NEJs with 95% CI, 72 hours ([1]; 72 h, ultrastructure score 1 normal to 6 dead or dissolved): 6.00 (6.0;6.0)
Activity against NEJs (first screen), in words ([1]; 72 h co-culture): maximal alterations to both phenotype/ultrastructure and motility
CC50 with 95% CI on MDBK cells (cytotoxicity) ([2]; MDBK cells, MTT, 24 h exposure): Undefined ^c
Effect on MDBK cell proliferation, in words ([2]; dose response titration up to 100 μM): modest proliferative effect
Cytotoxicity on MDBK cells, in words ([2]; highest concentration tested 100 μM): not cytotoxic even at the highest concentration tested
Average motility of 4 parasites with 95% CI at 24 hour time point ([3]; 24 h, immature flukes, score 1 normal to 5 no movement or death): 5.00 (5.0;5.0)
Average motility of 4 parasites with 95% CI at 48 hour time point ([3]; 48 h, immature flukes, score 1 to 5): 5.00 (5.0;5.0)
Average motility of 4 parasites with 95% CI at 72 hour time point ([3]; 72 h, immature flukes, score 1 to 5): 5.00 (5.0;5.0)
Effect on immature fluke motility, in words ([3]; by 72 h): paralyzed the assayed immature flukes
Average motility of 3 parasites treated with 4.4 µM, 24 hours ([4]; 4.4 µM, 24 h, adult flukes Italian strain, score 1 to 6): 1.00 (1.0;1.0)
Average motility of 3 parasites treated with 4.4 µM, 48 hours ([4]; 4.4 µM, 48 h, adult flukes Italian strain, score 1 to 6): 1.00 (1.0;1.0)
Average motility of 3 parasites treated with 4.4 µM, 72 hours ([4]; 4.4 µM, 72 h, adult flukes Italian strain, score 1 to 6): 3.00 (1.8; 4.1)
Average motility of 3 parasites treated with 13.3 µM, 24 hours ([4]; 13.3 µM, 24 h, adult flukes Italian strain, score 1 to 6): 1.33 (0.6;1.9)
Average motility of 3 parasites treated with 13.3 µM, 48 hours ([4]; 13.3 µM, 48 h, adult flukes Italian strain, score 1 to 6): 1.66 (0.3;2.9)
Average motility of 3 parasites treated with 13.3 µM, 72 hours ([4]; 13.3 µM, 72 h, adult flukes Italian strain, score 1 to 6): 3.33 (2.6;3.9)
Average motility of 3 parasites treated with 40 µM, 24 hours ([4]; 40 µM, 24 h, adult flukes Italian strain, score 1 to 6): 3.33 (2.6;3.9)
Average motility of 3 parasites treated with 40 µM, 48 hours ([4]; 40 µM, 48 h, adult flukes Italian strain, score 1 to 6): 4.00 (4.0;4.0)
Average motility of 3 parasites treated with 40 µM, 72 hours ([4]; 40 µM, 72 h, adult flukes Italian strain, score 1 to 6): 5.33 (4.0;6.6)
Effect on adult fluke (Italian strain) movement, in words ([4]; dose response, MC042 statement at 40 μM after 72 h): Decreased movement
Effect on wild strain adult fluke motility, in words ([5]; 72 h): no motility after 72 h; also recorded: performed very well
Average motility of 4 parasites with 95% CI at 72 hour time point ([5]; wild strain adult flukes, score 1 good/normal to 6 no movement or dead): 6.00 (6.0;6.0)
